Laboratory results published in patent publication US8227620B2, “Pharmaceutical compounds” (Neuroscienze Pharmaness S.C. A.R.L., priority 2004, dated 2012).
Entries after “also recorded” stand apart in the source; their conditions may differ.

Legend:
[1] = test system: rat intestinal motility; assay: Intestinal motility, Upper Gut Transit Test; type: in vivo; conditions: for antagonism of the constipating effect of the CB1 agonist WIN 55,212-2 / effect on the intestinal transit rate / intestinal portion run by the marker relative to the length run after physiological solution with Tween 80: i.p.; for intestinal portion run by the marker relative to the length run after physiological solution with Tween 80: compound alone
Procedure: To further evaluate the activity in vivo of the compounds (I) object of the present invention, functional tests were carried out to evaluate the effect of said compounds on the rat intestinal motility. It was indeed shown the involvement of the cannabinoidergic CB1 receptors in the intestinal motility regulation in rat (R. G. Pertwee et al; Br. J. Pharmacol.; 1996, 118, 2199-2205). In particular, the CB1 receptor agonists slacken the gastrointestinal motility; antagonist compounds of the same receptors have instead a prokinetic effect on the gastrointestinal transit (G. Colombo et al.; Eur. J. Pharmacol.; 1998, 344, 67-69; M. A. Casu et al.; Eur. J. Pharmacol.; 2003, 459, 97-105).
The evaluation of the constipating or prokinetic effect of the compounds was carried out by the Upper Gut Transit Test method on the basis of the procedure defined and ratified by Y. Nagakura et al.; Eur. J. Pharmacol.; 1996, 311, 67-72. The method, which allows to measure the motility of the stomach and of the first intestine tract (small or little intestine), implies: • the administration of the compound to be tested by i.p. route; • the administration of carmine red (marker not directly absorbable from the stomach) by intragastric route through a metal probe, after 20 minutes from the administration of the compound to be tested; • the rat sacrifice by cervical dislocation after a pre-fixed time (30 minutes) starting from the administration time; • the intestine explant from pylorus to the ileo-cecal valve; • the determination of the intestinal part crossed by the marker; • the data processing to determine the percentage of crossed part with respect to the total length of the small intestine.
With respect to the control (physiological solution or carrier wherein the compounds to be tested were solubilized or dispersed), the administration of CB1 agonist compounds implies a reduction of the intestinal transit percentage; an opposite effect is noticed in case of antagonist compounds. The latter are therefore capable to cancel the constipating effect of CB1 agonist compounds.
Each test was repeated on ten animals; the results reported in the Examples are the average of the results obtained with ten animals.

[2] = molecular target: T1, CB1 receptors (Rattus norvegicus, UniProt P20272); assay: Radioreceptor binding, [3H]-CP-55,940 displacement, rat brain membranes; design: from tissue; host or cells: whole animal (rat), central CB1 receptors of the hypothalamus; conditions: 1 nM [3H]-CP55,940
T1 sequence (P20272 whole entry): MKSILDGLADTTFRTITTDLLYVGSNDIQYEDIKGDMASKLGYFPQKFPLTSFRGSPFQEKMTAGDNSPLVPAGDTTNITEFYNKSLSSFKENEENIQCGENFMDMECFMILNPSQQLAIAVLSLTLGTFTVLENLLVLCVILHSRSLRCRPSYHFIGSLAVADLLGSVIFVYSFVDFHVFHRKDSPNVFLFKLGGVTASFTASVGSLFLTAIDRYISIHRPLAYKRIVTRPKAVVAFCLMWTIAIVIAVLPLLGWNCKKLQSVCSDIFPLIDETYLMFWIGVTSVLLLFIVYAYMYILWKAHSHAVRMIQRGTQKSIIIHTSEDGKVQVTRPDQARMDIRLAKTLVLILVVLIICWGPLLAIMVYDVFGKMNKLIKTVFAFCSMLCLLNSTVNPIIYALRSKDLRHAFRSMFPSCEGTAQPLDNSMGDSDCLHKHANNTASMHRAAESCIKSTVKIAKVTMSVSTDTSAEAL
Excerpt: (§1) The receptorial binding technique allows indeed to establish if and with what affinity and specificity a determined compound binds itself to a particular receptor. To evaluate the affinity of a determined compound towards a particular receptor, a particular preparation of the tissue wherein the receptors are present is used and the tested compound is made to compete with another compound, treated so as to make it radioactive and of which the affinity for the receptor is known. […] The reading of the radioactivity present in the receptor-compound complex allows furthermore to precisely calculate the compound amount bound to the receptor. By this method it is therefore possible to rapidely identify the affinity of a new compound towards a specific receptor and thus to make predictions on its pharmacological activity. By repeating the same experimental scheme it is possible to evaluate the affinity of the compound towards other kinds of receptors and thus establish the specificity degree.
(§2) Food and water were available ad libitum.
(§3) The animals were sacrificed by cervical dislocation, the brain in toto (cerebellum excluded) and the spleen were rapidely dissected and maintained in ice.
(§4) The tissue was homogenized in 15 volumes (weight/volume) of TME buffer (50 mM Tris, 1 mM EDTA e 3 mM MgCl2, pH 7.4) by an Ultra-Turrax and centrifuged for 10 minutes at 1086×g in a centrifuge cooled at 4° C. The resulting supernatant was centrifuged at 45,000×g for 30 min at 4° C. by using a Beckman SW41 rotor and the final pellet was resuspended in 50 volumes of TME.
(§5) The obtained membranes (50-80 μg of proteins) were incubated in the presence of 1 nM di [^3H]-CP55,940 for 1 h at 30° C. in a final volume of 0.5 ml of TME buffer containing 5 mg/ml of bovine serum albumin (BSA). The non specific binding was measured in the presence of CP55,940 at the 1 μM concentration. […]
(§6) The radioactivity present in the filters was measured by a scintillator spectrophotometer (Tricarb 2100, Packard, Meridien, USA). […]

[3] = molecular target: T2, CB2 receptors (Rattus norvegicus, UniProt Q9QZN9); assay: Radioreceptor binding, [3H]-CP-55,940 displacement, rat spleen membranes; conditions: 1 nM [3H]-CP55,940
T2 construct: the brain in toto (cerebellum excluded) and the spleen were rapidely dissected; from tissue; host or cells: rat spleen membranes
T2 sequence (Q9QZN9 1-360): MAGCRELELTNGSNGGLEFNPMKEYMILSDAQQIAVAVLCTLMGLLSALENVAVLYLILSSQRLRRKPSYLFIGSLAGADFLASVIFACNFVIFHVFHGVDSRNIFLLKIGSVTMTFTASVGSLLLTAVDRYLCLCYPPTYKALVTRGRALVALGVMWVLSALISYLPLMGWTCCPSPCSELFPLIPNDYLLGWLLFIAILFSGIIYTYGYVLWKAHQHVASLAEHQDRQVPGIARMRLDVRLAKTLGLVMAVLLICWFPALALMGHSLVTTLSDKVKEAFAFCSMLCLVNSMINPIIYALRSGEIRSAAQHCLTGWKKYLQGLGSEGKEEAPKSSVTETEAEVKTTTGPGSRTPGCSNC
Excerpt: as §1, §2, §3, §4, §5, §6

[4] = molecular target: T1, CB1 receptors; assay: Hypothermia test in vivo, compound alone (rectal temperature); design: from tissue; host or cells: whole animal (rat), central CB1 receptors of the hypothalamus; conditions: i.p., doses 0.1, 0.5, 1.0, 3.0, 6.0 mg/kg, versus physiological solution (38° C.)
Procedure: The test was carried out with the compound of the Example 3.1c. Aqueous samples were used wherein the compound of the Example 3.1c was dispersed in water with three drops of Tween 80. Following the above procedure, treatments were carried out with doses (mg compound/kg of body weight) respectively of 0.1; 0.5; 1.0; 3.0; 6.0.

Molecule	length run by the marker relative to physiological solution, WIN 55,212-2 preceded by the compound ([1]; WIN 55,212-2 0.5 mg/kg preceded by compound 1.0 mg/kg)	antagonism of the constipating effect of the CB1 agonist WIN 55,212-2 [1]	effect on the intestinal transit rate [1]	intestinal portion run by the marker relative to the length run after physiological solution with Tween 80 ([1]; 0.5 mg of compound/kg) [times]	intestinal portion run by the marker relative to the length run after physiological solution with Tween 80 ([1]; 1.0 mg of compound/kg) [times]	Ki [2] [nM]	Ki [3] [nM]	effect of the compound as such on body temperature [4]	length run by the marker relative to physiological solution, WIN 55,212-2 preceded by the compound ([1]; WIN 55,212-2 0.5 mg/kg preceded by compound 0.5 mg/kg)
Cc1c(C(=O)NN2CCCCC2)nn(-c2ccc(Cl)cc2Cl)c1-c1ccc(Cl)s1 [Example 3.1b, N-piperidinyl-5-(5-Chloro-thiophen-2-yl)-1-(2′,4′-dichloro-phenyl)-4-methyl-1H-pyrazol-3-carboxamide]	the same length	capable to antagonize the effect of a CB1 agonist; also recorded: capable to antagonize the constipating effect of the CB1 agonist WIN 55,212-2	increase the intestinal transit rate	1.57	1.76	35 ± 2.5	476 ± 3	does not cause as such any effect on the body temperature	–
N-pyrrolidinyl-5-(5-Chloro-thiophen-2-yl)-1-(2,4′-dichloro-phenyl)-4-methyl-1H-pyrazol-3-carboxamide [Example 3.1d]	–	capable to antagonize the effect of a CB1 agonist	increase the intestinal transit rate	1.61	1.74	63 ± 7.2	699 ± 21	does not cause as such any effect on the body temperature	the same length
